“Also recorded” adds a separate entry of the source.

Data set [1] concerns Col4a3−/− mice. As to the kind of experiment: Renal function in Col4a3-/- mice treated with ezetimibe, ramipril or both (Example 1, FIG. 5). It is filed as in vivo, mouse. An excerpt:
Albumin/creatinine ratio: All albuminuria values are expressed as μg albumin/mg creatinine. Albumin/creatinine determined by ELISA (Bethyl Laboratories) for albumin detection and a biochemical assay based on the Jaffe method for creatinine detection (Stanbio) as previously described. Serology: Immediately prior to sacrifice, a blood sample was collected for the determination of BUN and lipid panel analysis in the comparative laboratory core facility of the University of Miami. Serum creatinine was determined by tandem mass spectrometry (UAB-UCSD O'Brien Core Center, University of Alabama). The following experiment was performed to investigate which treatment, ezetimibe (EZ), ramipril (Ramp) or the combination of both drugs (EZ+Ramp), would best preserve renal function in Col4a3 knockout mice, all drugs were administered to 4-week-old Col4a3−/− mice for 4 weeks as follows: ezetimibe (Ez) was orally administered at a concentration of 5 mg/kg BW, ramipril was added to the drinking water at a concentration that would lead to a daily ramipril uptake of 10 mg/kg BW. All mice were sacrificed at 8 weeks of age. The following four groups of mice were analyzed: Col4a3^+/+, Col4a3^−/−+Ez, Col4a3^−/−+Ramp and Col4a3^−/−+Ez+Ramp.

Data set [2] deals with Col4a3−/− mice. The experiment in a line: Mesangial expansion (PAS) and renal fibrosis (Picrosirius Red) in Col4a3-/- mice (Example 3, FIG. 6). It is filed as in vivo, mouse. Conditions: treated vs untreated Col4a3−/− mice; ezetimibe 5 mg/kg, ramipril 10 mg/kg, 4 weeks. The method, then:
Assessment of mesangial expansion: Periodic acid-Schiff (PAS) staining of 4 μm-thick tissue sections was performed using a standard protocol. Twenty glomeruli per section were analyzed for mesangial expansion by semi quantitative analysis (scale 0-4) performed by two blinded independent investigators.
Picrosirius red staining: Paraffin-embedded sections (4 μm thick) were deparaffinized with xylene and a graded alcohol series. Sections were rinsed for 5 min in distilled water, stained for 1 hour with picrosirius red in saturated aqueous picric acid, examined under a light microscope and photomicrographs were taken. Histological images were visualized using a light microscope (Olympus BX 41, Tokyo, Japan) at 40× magnification and analyzed using Image J software.
The following experiment was performed to investigate which treatment, ezetimibe (EZ), ramipril (Ramp) or the combination of both drugs (EZ+Ramp), would best preserve renal function in Col4a3 knockout mice, all drugs were administered to 4-week-old Col4a3−/− mice for 4 weeks as follows: ezetimibe (Ez) was orally administered at a concentration of 5 mg/kg BW, ramipril was added to the drinking water at a concentration that would lead to a daily ramipril uptake of 10 mg/kg BW. All mice were sacrificed at 8 weeks of age. The following four groups of mice were analyzed: Col4a3^+/+, Col4a3^−/−+Ez, Col4a3^−/−+Ramp and Col4a3^−/−+Ez+Ramp.
PAS staining was performed to detect and quantify mesangial expansion, Picrossirius Red staining to detect and quantify renal fibrosis in treated compared to untreated Col4a3^−/− mice. […] Representative images for PAS staining are shown in FIG. 6A and of Picrosirius Red staining to detect fibrosis in […]. Bar graph quantifications for both are shown in FIGS. 6C and 6D, respectively.

In data set [3] the test system is Col4a3−/− mice. As to the kind of experiment: Renal cortex lipid content in Col4a3-/- mice (Example 4, FIG. 7). Conditions: treated vs untreated Col4a3−/− mice; ezetimibe 5 mg/kg, ramipril 10 mg/kg, 4 weeks. It is filed as in vivo, mouse. The method, then: Determination of cholesterol content in kidney cortex: Tissue from kidney cortexes was homogenized in hypotonic buffer (10 mM HEPES pH7.0, 15 mM KCl, 1 mM MgCl2, 10 mM phosphatase inhibitors). Lipids from 100 μl of the homogenate were extracted with 1 ml of hexane:isopropanol (3:2, v/v), dried and reconstituted in 100 μl of isopropanol-NP40 (9:1, v/v). Tissue fractions not soluble in the organic solvent, were further dried, reconstituted in 8 M urea, and assayed for protein concentration using Pierce BCA protein assay kit (ThermoFisher Scientific, MA, USA). Total cholesterol from lipid extracts was determined by the enzymatic method as previously described (Robinet, P., Wang, Z., Hazen, S. L. & Smith, J. D. A simple and sensitive enzymatic method for cholesterol quantification in macrophages and foam cells. Journal of lipid research 51, 3364-3369, 2010). Briefly, endogenous peroxides present were eliminated by incubating samples and standards with catalase (Sigma-Aldrich, MO, USA), 45 U/ml final concentration, for 15 min at 37° C. […] The plates were incubated at 37° C. for 30 min and fluorescence was read at 530 nm (Ex) and 580 nm (Em) in a plate reader (SpectraMax M5, Molecular Devices, CA, USA). Cholesteryl esters (CE) quantification was based on the method described from Toshimi M, et al. Briefly, 25 μl of samples was mixed with 150 μl of free cholesterol decomposition reagent (45 U/ml catalase, 1 U/ml cholesterol oxidase) and incubated 2-4 h at 37° C., and then the final volume was brought up to 250 μl prior to determining free and total cholesterol remaining. Total cholesterol remaining was determined by mixing 50 μl of end product reaction with 50 μl of reagent A, as described above. Free cholesterol remaining was determined similarly, but without including cholesterol esterase in the reagent. CE was calculated by the formula CE=(TC−FC)×DF, where TC is the total cholesterol remaining, FC the free cholesterol remaining and DF the dilution factor, in this case, 10. Lipid content: Oil Red 0 staining was performed on frozen tissue sections and triglyceride content was determined on snap frozen kidney tissue as described above. The following experiment was performed to investigate which treatment, ezetimibe (EZ), ramipril (Ramp) or the combination of both drugs (EZ+Ramp), would best preserve renal function in Col4a3 knockout mice, all drugs were administered to 4-week-old Col4a3−/− mice for 4 weeks as follows: ezetimibe (Ez) was orally administered at a concentration of 5 mg/kg BW, ramipril was added to the drinking water at a concentration that would lead to a daily ramipril uptake of 10 mg/kg BW. All mice were sacrificed at 8 weeks of age. The following four groups of mice were analyzed: Col4a3^+/+, Col4a3^−/−+Ez, Col4a3^−/−+Ramp and Col4a3^−/−+Ez+Ramp.

For data set [4] the following is noted: cited from earlier work.
For data set [5] the following is noted: cited from earlier work. The source holds these as a separate data set.
Another data set has as its system human podocytes. As to the kind of experiment: Collagen treatment of human podocytes: lipid content and free fatty acid uptake (FIG. 1). It is filed as cell-based. The method, then:
(§1) Differentiated human podocytes were serum starved for 16 hours followed by 18 hours treatment with 50 μg/mL collagen I (Corning), collagen II (Discoverx), and collagen IV (Sigma Aldrich)
Lipid content determination: Following collagen treatment, podocyte lipid content was assessed after fixation with PFA and staining with Bodipy 493/503 and Cell Mask Blue (Invitrogen). The Opera High Content Screening system and Acapella Image Analysis software was used to determine the number of Bodipy 493/503 positive lipid droplets per cell. Triglyceride content was assessed using the Triglyceride Quantification Kit (Cell Biolabs) following manufacturer instructions and normalizing to cell protein content using the BCA method.
Free fatty acid uptake was assessed using the fluorometric free fatty acid uptake Kit (Abcam) in Ctrl and Col I treated podocytes after 1 hour serum starvation. The uptake of FFA was analyzed using a fluorimeter (SpectraMax5, […]).

A further data set has as its target T1, DDR1 (Homo sapiens, UniProt Q08345).
T1 construct: Differentiated human podocytes were serum starved for 16 hours followed by 18 hours treatment with 50 μg/mL collagen I; endogenous in cells; host or cells: conditionally immortalized human podocyte cell line (Saleem et al. 2002), differentiated
The experiment in a line: DDR1 activation in human podocytes treated with collagen (FIG. 2). The format is cell-based. As for the experimental part:
as §1
Isolation of plasma membranes: Preparation of membrane pellets was performed by ultracentrifugation of cell pellets suspended in homogenization media (15 mM KCl, 1.5 mM MgCl2, 10 mM HEPES, 1 mM DTT) supplemented with protease inhibitors. Effective separation was verified by WB for Na-K ATPase.

Setting [6] is: Col4a3−/− mice treated 4 weeks, ezetimibe 5 mg/kg, ramipril 10 mg/kg, vs untreated Col4a3−/−.
Setting [7] is: Col4a3−/− mice, 4 weeks treatment.

T1 sequence (Q08345 19-913): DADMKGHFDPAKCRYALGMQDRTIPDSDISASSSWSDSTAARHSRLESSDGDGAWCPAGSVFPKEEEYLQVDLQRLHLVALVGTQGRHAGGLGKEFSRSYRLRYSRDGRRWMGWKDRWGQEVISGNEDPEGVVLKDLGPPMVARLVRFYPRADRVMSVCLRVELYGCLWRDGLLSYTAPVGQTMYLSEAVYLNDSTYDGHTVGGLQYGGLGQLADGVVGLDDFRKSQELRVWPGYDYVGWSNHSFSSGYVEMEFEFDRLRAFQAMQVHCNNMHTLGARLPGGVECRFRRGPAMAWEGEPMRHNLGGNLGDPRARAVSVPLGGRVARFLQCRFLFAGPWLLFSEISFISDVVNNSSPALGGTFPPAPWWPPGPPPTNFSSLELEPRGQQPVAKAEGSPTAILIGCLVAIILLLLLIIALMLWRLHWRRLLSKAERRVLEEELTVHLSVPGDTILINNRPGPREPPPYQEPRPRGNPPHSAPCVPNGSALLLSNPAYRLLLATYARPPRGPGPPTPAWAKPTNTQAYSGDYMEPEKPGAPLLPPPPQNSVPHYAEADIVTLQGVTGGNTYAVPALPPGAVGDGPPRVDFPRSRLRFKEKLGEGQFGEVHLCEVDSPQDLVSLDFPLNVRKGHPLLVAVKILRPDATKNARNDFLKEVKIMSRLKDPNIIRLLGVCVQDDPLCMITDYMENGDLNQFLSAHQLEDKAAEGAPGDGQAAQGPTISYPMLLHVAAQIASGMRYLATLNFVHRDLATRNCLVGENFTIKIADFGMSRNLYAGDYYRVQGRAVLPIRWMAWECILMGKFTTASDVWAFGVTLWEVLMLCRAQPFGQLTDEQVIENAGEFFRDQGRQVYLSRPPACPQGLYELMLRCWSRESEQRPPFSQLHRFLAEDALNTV

`CCOC(=O)[C@H](CCc1ccccc1)N[C@@H](C)C(=O)N1[C@H](C(=O)O)C[C@@H]2CCC[C@@H]21` [ramipril, (2S,3aS,6aS)-1[(S)—N—[(S)-1-Carboxy-3-phenylpropyl]alanyl]octahydrocyclop-enta[b]pyrrole-2-carboxylic acid, 1-ethyl ester]: in the data set with Col4a3−/− mice [1] (4-week-old Col4a3−/− mice treated 4 weeks, ezetimibe 5 mg/kg BW oral, ramipril 10 mg/kg BW in drinking water, vs untreated Col4a3−/−), the “albumin/creatinine ratio (ACR)” value is recorded as “significant reduction in the albumin/creatinine ratio; also recorded: significant decrease in the albumin/creatinine ratio”. Further, in the data set with Col4a3−/− mice [1] (setting [6]), the “serum BUN levels” value is reported as “significant reduction in the serum BUN levels” and the serum creatinine levels result is on record as “significant reduction in the serum creatinine levels”. For the same compound, in the data set on Col4a3−/− mice [1] (setting [7]), the “reduction of BUN levels, compared to ezetimibe alone” value is reported as “superior effect on reducing BUN levels” and the “reduction of serum creatinine, compared to ezetimibe alone” value is listed as “superior effect on reducing serum creatinine levels”. Besides, in the data set with Col4a3−/− mice [2], the “mesangial expansion (PAS staining, score)” value was “significant reduction; also recorded: significantly reduced mesangial expansion” and the “renal fibrosis (Picrosirius Red staining)” value is on record as “significant reduction; also recorded: significantly reduced”. Moreover, in the data set with Col4a3−/− mice [3], the “esterified cholesterol (CE) content in kidney cortexes” value is recorded as “reduces the esterified cholesterol content; also recorded: significantly decreased” and the “triglyceride (TG) content in kidney cortexes” value was “no effect on the Triglyceride content; also recorded: not observed”. For the same compound, the “solubility in polar organic solvents and buffered aqueous solutions” value in data set [4] is “soluble”. Further, in data set [5] (general knowledge stated in the patent), the blood cholesterol levels entry is “little or no effect”. In addition, the “peripheral arterial resistance and blood pressure” value in data set [5] (hypertensive patients) is recorded as “reduction in blood pressure without a compensatory rise in heart rate”. Also, in data set [5] (patients with clinical signs of congestive heart failure after surviving an acute myocardial infarction), the mortality entry was “reduce mortality”.
Take “Col I: collagen I (Corning), 50 μg/mL, used to treat human podocytes”: in the data set with human podocytes (Col I treated human podocytes), the “cholesterol ester to total cholesterol ratio” value was “mildly decreased”, the esterified cholesterol content result was “increased” and the total cholesterol content result is “increased total cholesterol content”. The cellular triglyceride content entry in the data set on human podocytes (human podocytes after Col I treatment) is “increased”. For the same compound, the “number of lipid droplets per cell (BODIPY)” value in the data set with human podocytes (human podocytes, 50 μg/mL collagen, 18 hours, vs Ctrl) is on record as “increased lipid droplet content”. For the same compound, the “free fatty acid uptake” value with human podocytes (human podocytes, collagen I treated vs Ctrl) is recorded as “increased”. The “activation of DDR1 at the plasma membrane” value in the data set with DDR1 (human podocytes, plasma membrane fraction) is listed as “leads to activation of DDR1”. In addition, the “DDR1 activation (pDDR1)” value with DDR1 (normal human podocytes) is “leads to DDR1 activation”.

Values taken from patent US20210186930A1, “Methods of Treating Renal Disease Associated With Chronic Kidney Disease Such as Alport Syndrome” (UNIVERSITY OF MIAMI, priority 2018, published 2021).
